Laboratory results published in patent US20100144755A1 (Glaxo Group Limited, priority 2006, published 2010).
Counter-ions that a name gives are not always drawn.
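Note: IL-8 in cell-free supernatant quantified by sandwich ELISA, inhibition calculated against a compound-free control.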

The compounds below were run on TNF-stimulated IL8 production by human neutrophils (assay: TNF-stimulated IL-8 production from human neutrophils). Conditions: Neutrophil, TNF 100 ng/ml, about 20 hrs, bounds reflect the top concentration screened, for 202(c) and 120 a range over multiple runs with ends given as 'greater than'.
Format: cell-based
For `Cc1ccc(C(=O)O)cc1-c1nc(N2CCC(N3CCC(C)CC3)CC2)nc2c1ccc(=O)n2-c1c(F)cccc1F` [163(b), 3-[8-(2,6-difluorophenyl)-2-(4-methyl-1,4′-bipiperidin-1′-yl)-7-oxo-7,8-dihydropyrido[2,3-d]pyrimidin-4-yl]-4-methylbenzoic acid], the IC50 was > 100 nM.
`Cc1cc(C(=O)Nc2ccc(C)c(-c3nc(NC4CCNCC4)nc4c3ccc(=O)n4-c3c(F)cccc3F)c2)ccc1F` [12(c), N-{3-[8-(2,6-difluorophenyl)-7-oxo-2-(4-piperidinylamino)-7,8-dihydropyrido[2,3-d]pyrimidin-4-yl]-4-methylphenyl}-4-fluoro-3-methylbenzamide] was tested, and the IC50 was > 100 nM.
For `CCN(CC)CCCNc1nc(-c2ccc(C(=O)Nc3ccc(F)cc3)cc2)c2ccc(=O)n(-c3c(F)cccc3F)c2n1` [Example 191, 4-[2-{[3-(diethylamino)propyl]amino}-8-(2,6-difluorophenyl)-7-oxo-7,8-dihydropyrido[2,3-d]pyrimidin-4-yl]-N-(4-fluorophenyl)benzamide], the IC50 was > 100 nM.
For `CCN(CC)CCCNc1nc(-c2cccc(C(=O)NCC(C)C)c2C)c2ccc(=O)n(-c3c(F)cccc3F)c2n1` [Example 154, 3-[2-{[3-(diethylamino)propyl]amino}-8-(2,6-difluorophenyl)-7-oxo-7,8-dihydropyrido[2,3-d]pyrimidin-4-yl]-2-methyl-N-(2-methylpropyl)benzamide], the IC50 was > 100 nM.
With `CCN(CC)CCCNc1nc(-c2ccc(C(=O)NC3CC3)cc2)c2ccc(=O)n(-c3c(F)cccc3F)c2n1` [Example 190, N-cyclopropyl-4-[2-{[3-(diethylamino)propyl]amino}-8-(2,6-difluorophenyl)-7-oxo-7,8-dihydropyrido[2,3-d]pyrimidin-4-yl]benzamide] the IC50 was > 30 nM.
`CCN(CC)CCCNc1nc(-c2cccc(C(=O)Nc3ccc(F)cc3)c2C)c2ccc(=O)n(-c3c(F)cccc3F)c2n1` [Example 152, 3-[2-{[3-(diethylamino)propyl]amino}-8-(2,6-difluorophenyl)-7-oxo-7,8-dihydropyrido[2,3-d]pyrimidin-4-yl]-N-(4-fluorophenyl)-2-methylbenzamide] was tested, and the IC50 was > 100 nM.
`Cc1ccc(NC(=O)c2cc[nH]n2)cc1-c1nc(NC(CO)CO)nc2c1ccc(=O)n2-c1c(F)cccc1F` [Example 53, N-[3-8-(2,6-difluorophenyl-2-{[2-hydroxy-1-(hydroxymethyl)ethyl]amino}-7-oxo-7,8-dihydropyrido[2,3-d]pyrimidin-4-yl)-4-methylphenyl]-1H-pyrazole-3-carboxamide trifluoroacetate] was tested, and the IC50 was > 100 nM.
For `CNCCNc1nc(-c2cc(NC(=O)c3cccs3)ccc2C)c2ccc(=O)n(-c3c(F)cccc3F)c2n1` [Example 11, N-[3-(8-(2,6-difluorophenyl)-2-{[2-(methylamino)ethyl]amino}-7-oxo-7,8-dihydropyrido[2,3-d]pyrimidin-4-yl)-4-methylphenyl]-2-thiophenecarboxamide], the IC50 was > 100 nM.
With `Cc1ccc(N)cc1-c1nc(NC2CC(C)(C)NC(C)(C)C2)nc2c1ccc(=O)n2-c1c(F)cccc1F` [Example 110, 4-(5-amino-2-methylphenyl)-8-(2,6-difluorophenyl)-2-[(2,2,6,6-tetramethyl-4-piperidinyl)amino]pyrido[2,3-d]pyrimidin-7(8H)-one] the IC50 was > 100 nM.
With `Cc1ccc(C(=O)NCCc2ccccc2)cc1-c1nc(NCCN(C)C(=O)OC(C)(C)C)nc2c1ccc(=O)n2-c1c(F)cccc1F` [202(c), 1,1-dimethylethyl(2-{[8-(2,6-difluorophenyl)-4-(2-methyl-5-{[(2-phenylethyl)amino]carbonyl}phenyl)-7-oxo-7,8-dihydropyrido[2,3-d]pyrimidin-2-yl]amino}ethyl)methylcarbamate] the IC50 was 10 to 100 nM.
For `CCN(CC)CCCNc1nc(-c2cccc(C(=O)NC3CC3)c2C)c2ccc(=O)n(-c3c(F)cccc3F)c2n1` [Example 155, N-cyclopropyl-3-[2-{[3-(diethylamino)propyl]amino}-8-(2,6-difluorophenyl)-7-oxo-7,8-dihydropyrido[2,3-d]pyrimidin-4-yl]-2-methylbenzamide], the IC50 was > 100 nM.
For `Cc1ccc(C(=O)NCc2ccccc2)cc1-c1nc([S+](C)[O-])nc2c1ccc(=O)n2-c1c(F)cccc1F` (centres unmarked) [116(b), 3-[8-(2,6-difluorophenyl)-2-(methylsulfinyl)-7-oxo-7,8-dihydropyrido[2,3-d]pyrimidin-4-yl]-4-methyl-N-(phenylmethyl)benzamide], the IC50 was > 100 nM.
With `CCN(CC)CCCNc1nc(-c2cc(C(=O)O)ccc2C)c2ccc(=O)n(-c3c(F)cccc3F)c2n1` [118(a), 3-[2-{[3-(diethylamino)propyl]amino}-8-(2,6-difluorophenyl)-7-oxo-7,8-dihydropyrido[2,3-d]pyrimidin-4-yl]-4-methylbenzoic acid] the IC50 was > 100 nM.
With `CCN(CC)CCCNc1nc(-c2ccc(C(=O)NC(C)C)cc2)c2ccc(=O)n(-c3c(F)cccc3F)c2n1` [Example 189, 4-[2-{[3-(diethylamino)propyl]amino}-8-(2,6-difluorophenyl)-7-oxo-7,8-dihydropyrido[2,3-d]pyrimidin-4-yl]-N-(1-methylethyl)benzamide] the IC50 was > 100 nM.
In the case of `Cc1ccc(NC(=O)c2ccc(Cl)nc2)cc1-c1nc(NC2CC(C)(C)NC(C)(C)C2)nc2c1ccc(=O)n2-c1c(F)cccc1F` [Example 16, 6-chloro-N-(3-{8-(2,6-difluorophenyl)-7-oxo-2-[(2,2,6,6-tetramethyl-4-piperidinyl)amino]-7,8-dihydropyrido[2,3-d]pyrimidin-4-yl}-4-methylphenyl]-3-pyridinecarboxamide], the IC50 is reported as > 100 nM.
`Cc1ccc(N)cc1-c1nc(NC2CCNCC2)nc2c1ccc(=O)n2-c1c(F)cccc1F` [Example 111, 4-(5-amino-methylphenyl)-8-(2,6-difluorophenyl)-2-(4-piperidinylamino)-pyrido[2,3-d]pyrimidin-7(8H)-one] was tested, and the IC50 was > 100 nM.
In the case of `CCCNC(=O)c1cccc(-c2nc(NCCCN(CC)CC)nc3c2ccc(=O)n3-c2c(F)cccc2F)c1C` [Example 153, 3-[2-{[3-(diethylamino)propyl]amino}-8-(2,6-difluorophenyl)-7-oxo-7,8-dihydropyrido[2,3-d]pyrimidin-4-yl]-2-methyl-N-propylbenzamide], the IC50 is reported as > 100 nM.
In the case of `Cc1ccc(NC(=O)CCNC(=O)CCC(=O)O)cc1-c1nc(NC(CO)CO)nc2c1ccc(=O)n2-c1c(F)cccc1F` [Example 52, 4-[(3-{[3-(8-(2,6-difluorophenyl)-2-{[2-hydroxy-1-(hydroxymethyl)ethyl]amino}-7-oxo-7,8-dihydropyrido[2,3-d]pyrimidin-4-yl)-4-methylphenyl]amino}-3-oxopropyl)amino]-4-oxobutanoic acid trifluoroacetate], the IC50 is reported as > 100 nM.
`CCCNC(=O)c1ccc(-c2nc(NCCCN(CC)CC)nc3c2ccc(=O)n3-c2c(F)cccc2F)cc1` [188(b), 4-[2-{[3-(diethylamino)propyl]amino}-8-(2,6-difluorophenyl)-7-oxo-7,8-dihydropyrido[2,3-d]pyrimidin-4-yl]-N-propylbenzamide] was tested, and the IC50 was > 100 nM.
`Cc1ccc(NC(=O)c2ccc(Cl)nc2)cc1-c1nc(N2CCC(N)CC2)nc2c1ccc(=O)n2-c1c(F)cccc1F` [Example 15, N-{3-[2-(4-amino-1-piperidinyl)-8-(2,6-difluorophenyl)-7-oxo-7,8-dihydropyrido[2,3-d]pyrimidin-4-yl]-4-methylphenyl}-6-chloro-3-pyridinecarboxamide] was tested, and the IC50 was > 100 nM.
